The subject of one experiment is clinical MRSA ST239. Briefly: Mouse pneumonia model, ST239 (neutropenic mice). In kind it is in vivo, Balb/c mice. Particulars: ST239; 48 h; 1 also died in control.
Experiment [1] has as its system cytokines production of human macrophages stimulated with PGN or SEB. In kind it is cell-based.
In the next experiment the test system is HA MRSA W231. The note with it: ECG+Kur+Van.

`O=C(O[C@@H]1Cc2c(O)cc(O)cc2O[C@@H]1c1ccc(O)c(O)c1)c1cc(O)c(O)c(O)c1` [ECG, epicatechin gallate] displayed a mice died in the experiment on clinical MRSA ST239 of 1 mouse. Moreover, the IL-12 production result in experiment [1] is given as “could suppress only IL-12”. In addition, in the experiment with HA MRSA W231, the FIC is listed as 0.0004 and the MIC combine amounted to 0.25 mg/L.

Values taken from patent publication US11690810B2, “Combination treatment of bacterial infection” (The Chinese University of Hong Kong, priority 2018, dated 2023).
